Assay results published in patent US20220347071A1, “USE OF CANNABINOIDS IN THE TREATMENT OF ORAL INFLAMMATION AND PERIODONTAL DISEASE” (priority 2021, published 2022).
Entries after “also recorded” stand apart in the source; their conditions may differ.

Assays:
[1] = tested on: PGE2; assay: PGE2 release by PMA-stimulated NHEK (ELISA); assay type: cell-based, human; settings: for PGE2 release, % of the control: highest tested concentration; for PGE2 release, % of the control / Effect on PGE2 release (in words) / PGE2 release, % of relative inhibition: PMA-stimulated keratinocytes; for PGE2 release, % of relative inhibition: concentration not given; for PGE2 release, % Relative inhibition: NHEK, PMA 0.5 μg/ml, 24 h
Method: (§1) The effects on normal human epidermal keratinocytes (NHEK) were measured by assessing IL-8 and PGE2 release by PMA-stimulated NHEK using specific ELISA kits.
(§2) Normal human epidermal keratinocytes (NHEK): • Cell type: NHEK • Culture conditions: 37° C., 5% CO2 • Culture medium: Keratinocyte SFM supplemented with Epidermal Growth Factor (EGF) 0.25 ng/ml • Pituitary extract (PE) 25 μg/ml • Gentamycin 25 μg/ml • Assay medium 1: Epilife® medium supplemented with PE 0.2% • Bovine transferrin 5 μg/ml • EGF 0.2 ng/ml • Insulin 5 μg/ml • Gentamycin/Amphotericin • Assay medium 2: Keratinocyte SFM supplemented with Gentamycin 25 μg/ml
(§3) Keratinocytes were seeded in 96-well plates and cultured for 24 hours in culture medium. […] After pre-incubation, the medium was removed and replacedby assay medium 1 containing or not (stimulated control) the compounds or the reference compound and containing the inducer (PMA tested at 0.5 μg/ml). The cells were then incubated for 24 hours. In parallel, a non-stimulated control condition was performed.
(§4) All experimental conditions were performed in n=3. At the end of incubation, the culture supernatants were collected for IL-8 and PGE2 quantifications.
(§5) IL-8 and PGE2 released in the culture supernatants were measured using specific ELISA kits according to the supplier's instructions.

[2] = tested on: IL-8; assay: IL-8 release by PMA-stimulated NHEK (ELISA); assay type: cell-based, human; settings: for Effect on IL-8 release (in words): PMA-stimulated keratinocytes; for IL-8 release, % Relative inhibition: NHEK, PMA 0.5 μg/ml, 24 h
Method: as §1, §2, §3, §4, §5

**Q.** What does the source list for `C=C(C)[C@@H]1CCC(C)=C[C@H]1c1c(O)cc(CCCCC)cc1O` [CBD, cannabidiol, reference compound]?
**A.** PGE2 release, % of the control [1]: 185%; Effect on IL-8 release (in words) ([2]; tested at 0.3 μM): overstimulated IL-8 release

**Q.** How did the “Effect on PGE2 release (in words)” value [1] turn out when `C=C(C)[C@@H]1CCC(C)=C[C@H]1c1c(O)cc(CCCCC)c(C(=O)O)c1O` [CBDA, cannabidiolic acid, reference compound] was run?
**A.** did not modulate

**Q.** Which “Effect on PGE2 release (in words)” value [1] does the source give for `CCCCCc1cc(O)c(C/C=C(\C)CCC=C(C)C)c(O)c1` [CBG, cannabigerol] here?
**A.** significant at all tested concentrations; also recorded: significantly inhibited

**Q.** And the “PGE2 release, % of relative inhibition” value [1]?
**A.** about 160%

**Q.** What about the “Effect on IL-8 release (in words)” value ([2]; concentration not given) of the same compound?
**A.** significantly inhibited

**Q.** What about the “Effect on IL-8 release (in words)” value ([2]; tested at 3 (unit not given)) of the same compound?
**A.** strongly inhibited

**Q.** For `CCCCCc1cc(O)c(C/C=C(\C)CCC=C(C)C)c(O)c1C(=O)O` [CBGA, cannabigerolic acid, reference compound], which “PGE2 release, % of the control” value [1] is on record?
**A.** 182%

**Q.** Which “PGE2 release, % Relative inhibition” value ([1]; 0.1 μM) does the source give for `CCCc1cc(O)c(C/C=C(\C)CCC=C(C)C)c(O)c1C(=O)O` [CBGVA, cannabigerovarinic acid] here?
**A.** 19%

**Q.** And the “PGE2 release, % Relative inhibition” value ([1]; 0.3 μM)?
**A.** 65%

**Q.** And the “PGE2 release, % Relative inhibition” value ([1]; 1 μM)?
**A.** >162%

**Q.** And the “Effect on PGE2 release (in words)” value [1]?
**A.** significant effect only when tested at the highest concentration; also recorded: inhibited

**Q.** And the “PGE2 release, % of relative inhibition” value [1]?
**A.** about 160%

**Q.** And the “IL-8 release, % Relative inhibition” value ([2]; 0.1 μM)?
**A.** 2%

**Q.** And the “IL-8 release, % Relative inhibition” value ([2]; 0.3 μM)?
**A.** 11%

**Q.** What about the “IL-8 release, % Relative inhibition” value ([2]; 1 μM) of the same compound?
**A.** 9%

**Q.** `COc1ccc2c(c1)c(CC(=O)O)c(C)n2C(=O)c1ccc(Cl)cc1` [Indomethacin, indomethacin, reference compound] was tested. Which “PGE2 release, % Relative inhibition” value ([1]; 1 μM) did it give?
**A.** >169%

**Q.** How did the “Effect on PGE2 release (in words)” value [1] turn out when `O=C1O[C@H]([C@@H](O)CO)C(O)=C1O` [L-Ascorbic acid, reference compound] was run?
**A.** overall the same effect at all tested concentrations; also recorded: significantly limited

**Q.** What about the “PGE2 release, % of relative inhibition” value [1] of the same compound?
**A.** ~145%
